Assay results: patent US10870638B2, “Pyridazinone compound or its salt, and herbicide containing it” (ISHIHARA SANGYO KAISHA, LTD., priority 2016, dated 2020)

Key:
Assay type in all cases: in vivo
Settings in all cases: 14th day after application
[1] = test system: velvetleaf (Abutilon theophrasti MEDIC.); assay: Test Example 2: soil application on the day after sowing, growth inhibition rate on 14th day
Method in brief: (§1)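 Read-out is visual percent growth inhibition 14 days post-application, scaled from 0 (as non-treated) to 100 (complete kill). Treatment: soil application by small sprayer the day after sowing, compound formulations diluted in water equivalent to 1,000 L/ha.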

[2] = test system: redroot pigweed (Amaranthus retroflexus L.); assay: as above
Method in brief: as §1

[3] = test system: wheat (Triticum aestivum L.); assay: as above
Method in brief: as §1

[4] = test system: green foxtail (Setaria viridis L.); assay: as above
Method in brief: as §1

[5] = test system: soybean (Glycine max Merr.); assay: as above
Method in brief: as §1

rice (Oryza sativa L.) [6] = assay: as above
Method in brief: as §1

[7] = test system: prickly sida (Sida spinosa L.); assay: as above
Method in brief: as §1

[8] = test system: crabgrass (Digitaris sanquinalis L.); assay: as above
Method in brief: as §1

corn (Zea mays L.) [9] = assay: as above
Method in brief: as §1

[10] = test system: barnyardgrass (Echinochloa crus-qalli L.); assay: as above
Method in brief: as §1

[11] = test system: redroot pigweed (Amaranthus retroflexus L.); assay: Test Example 1: foliar treatment, growth inhibition rate on 14th day
Method in brief: (§2)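 Using a small sprayer, formulated compound in water (0.1 vol % surfactant, 1,000 L/ha) was applied to seedlings grown from seed in upland soil. Fourteen days on, growth state was observed and expressed as percent inhibition from 0 to 100.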

[12] = test system: wheat (Triticum aestivum L.); assay: as above
Method in brief: as §2

[13] = test system: green foxtail (Setaria viridis L.); assay: as above
Method in brief: (§3)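 Compounds applied once to leaves of pot-grown plants; wild oat at 0.4–1.2 leaf, foxtail 0.5–3.2, rice 0.2–2.7, soybean primary leaf. Inhibition estimated by eye on day 14.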

[14] = test system: wild oat (Avena fatua L.); assay: as above
Method in brief: as §3

[15] = test system: crabgrass (Digitaria sanquinalis L.); assay: as above
Method in brief: as §2

[16] = test system: soybean (Glycine max Merr.); assay: as above
Method in brief: as §3

rice (Oryza sativa L.) [17] = assay: as above
Method in brief: as §3

[18] = test system: italian ryegrass (Lolium multiflorum Lam.); assay: as above
Method in brief: as §2

corn (Zea mays L.) [19] = assay: as above
Method in brief: as §2

[20] = test system: barnyardgrass (Echinochloa crus-qalli L.); assay: as above
Method in brief: as §2

[21] = active ingredient amount 31 g/ha
[22] = active ingredient amount 500 g/ha
[23] = active ingredient amount 31 g/ha, visual, 0 = non-treated, 100 = complete kill

| Structure (SMILES) | Growth inhibition rate (%) Velvetleaf [1, 21] [%] | Growth inhibition rate (%) Redroot pigweed [2, 21] [%] | Growth inhibition rate (%) Wheat [3, 21] [%] | Growth inhibition rate (%) Green foxtail [4, 21] [%] | Growth inhibition rate (%) Soybean [5, 21] [%] | Growth inhibition rate (%) Rice (rice (Oryza sativa L.) [6]; [21]) [%] | Growth inhibition rate (%) Prickly sida [7, 21] [%] | Growth inhibition rate (%) Crabgrass [8, 21] [%] | Growth inhibition rate (%) Corn (corn (Zea mays L.) [9]; [21]) [%] | Growth inhibition rate (%) Barnyardgrass [10, 21] [%] | Growth inhibition rate (%) Redroot pigweed [11, 21] [%] | Growth inhibition rate (%) Wheat [12, 21] [%] | Growth inhibition rate (%) Green foxtail [13, 21] [%] | Growth inhibition rate (%) Wild oat [14, 21] [%] | Growth inhibition rate (%) Crabgrass [15, 21] [%] | Growth inhibition rate (%) Soybean [16, 21] [%] | Growth inhibition rate (%) Rice (rice (Oryza sativa L.) [17]; [21]) [%] | Growth inhibition rate (%) Italian ryegrass [18, 21] [%] | Growth inhibition rate (%) Corn (corn (Zea mays L.) [19]; [21]) [%] | Growth inhibition rate (%) Barnyardgrass [20, 21] [%] | further results |
| --- | --- | --- | --- | --- | --- | --- | --- | --- | --- | --- | --- | --- | --- | --- | --- | --- | --- | --- | --- | --- | --- |
| CCn1nc(C)c(O)c(-c2cc(Oc3ncc(C(F)(F)F)cc3Cl)ccc2C)c1=O [1-65] | 0 | 0 | 0 | 99 | 0 | 20 | 0 | 100 | 0 | 100 | 0 | 10 | 100 | 98 | 100 | 0 | 60 | 98 | 98 | 99 | – |
| CC(=O)Oc1c(C)nn(C)c(=O)c1-c1cc(Oc2ncc(Cl)cc2F)ccc1C [Compound 2-59] | 0 | 0 | 0 | 40 | 0 | 0 | 0 | 70 | 0 | 75 | 0 | 40 | 83 | 95 | 83 | 0 | 90 | 90 | 90 | 99 | – |
| Cc1ccc(Oc2ncc(C(F)(F)F)cc2F)cc1-c1c(O)c(C)nn(C)c1=O [Compound 2-5] | 0 | 0 | 30 | 100 | 0 | 80 | 0 | 100 | 65 | 100 | 20 | 40 | 100 | 95 | 99 | 0 | 85 | 95 | 75 | 100 | – |
| CCc1nn(C)c(=O)c(-c2cc(Oc3cnc4cc(Cl)ccc4n3)ccc2C)c1O [Compound 3-34] | 0 | 0 | 0 | 98 | 0 | 20 | 0 | 65 | 20 | 99 | 0 | 90 | 100 | 95 | 95 | 30 | 90 | 99 | 15 | 100 | – |
| CC(=O)Oc1c(C)nn(C)c(=O)c1-c1cc(Sc2ncc(C(F)(F)F)cc2Cl)ccc1C [1-42] | 0 | 0 | 0 | 100 | 0 | 80 | 0 | 100 | 40 | 100 | 10 | 100 | 100 | 100 | 100 | 10 | 88 | 100 | 100 | 100 | – |
| CC(=O)Oc1c(C)nn(C)c(=O)c1-c1cc(Oc2ncc(Br)cc2Cl)ccc1C [Compound 2-135] | 0 | 0 | 0 | 90 | 10 | 0 | 0 | 75 | 0 | 90 | 0 | 88 | 95 | 90 | 90 | 0 | 80 | 95 | 93 | 93 | – |
| Cc1ccc(Oc2cnc3ccccc3c2)cc1-c1c(O)c(C)nn(C)c1=O [Compound 2-112] | – | – | – | – | – | – | – | – | – | – | – | – | – | – | – | – | – | – | – | – | Growth inhibition rate (%) Velvetleaf [1, 22]: 0%; Growth inhibition rate (%) Redroot pigweed [2, 22]: 0%; Growth inhibition rate (%) Wheat [3, 22]: 20%; Growth inhibition rate (%) Green foxtail [4, 22]: 100%; Growth inhibition rate (%) Soybean [5, 22]: 0%; Growth inhibition rate (%) Rice (rice (Oryza sativa L.) [6]; [22]): 70%; Growth inhibition rate (%) Prickly sida [7, 22]: 0%; Growth inhibition rate (%) Crabgrass [8, 22]: 100%; Growth inhibition rate (%) Corn (corn (Zea mays L.) [9]; [22]): 0%; Growth inhibition rate (%) Barnyardgrass [10, 22]: 100%; Growth inhibition rate (%) Redroot pigweed [11, 22]: 20%; Growth inhibition rate (%) Wheat [12, 22]: 80%; Growth inhibition rate (%) Green foxtail [13, 22]: 100%; Growth inhibition rate (%) Wild oat [14, 22]: 90%; Growth inhibition rate (%) Crabgrass [15, 22]: 98%; Growth inhibition rate (%) Soybean [16, 22]: 0%; Growth inhibition rate (%) Rice (rice (Oryza sativa L.) [17]; [22]): 93%; Growth inhibition rate (%) Italian ryegrass [18, 22]: 90%; Growth inhibition rate (%) Corn (corn (Zea mays L.) [19]; [22]): 93%; Growth inhibition rate (%) Barnyardgrass [20, 22]: 99% |
| CCc1ccc(Oc2nc3ccc(Cl)cc3s2)cc1-c1c(O)c(C)nn(C)c1=O [Compound 2-150] | 0 | 100 | 0 | 98 | 0 | 0 | 75 | 90 | 0 | 100 | 0 | 75 | 98 | 50 | 60 | 0 | 30 | 98 | 30 | 100 | – |
| C#CC(=O)Oc1c(C)nn(C)c(=O)c1-c1cc(Oc2cnc3cc(Cl)ccc3n2)ccc1C [Compound 3-82] | 0 | 0 | 0 | 99 | 0 | 0 | 0 | 85 | 0 | 99 | – | – | – | – | – | – | – | – | – | – | Growth inhibition rate (%) Redroot pigweed [11, 23]: 10%; Growth inhibition rate (%) Wheat [12, 23]: 98%; Growth inhibition rate (%) Green foxtail [13, 23]: 100%; Growth inhibition rate (%) Wild oat [14, 23]: 98%; Growth inhibition rate (%) Crabgrass [15, 23]: 98%; Growth inhibition rate (%) Soybean [16, 23]: 0%; Growth inhibition rate (%) Rice (rice (Oryza sativa L.) [17]; [23]): 93%; Growth inhibition rate (%) Italian ryegrass [18, 23]: 98%; Growth inhibition rate (%) Corn (corn (Zea mays L.) [19]; [23]): 35%; Growth inhibition rate (%) Barnyardgrass [20, 23]: 100% |
